Results: patent US20240383875A1, “Benzimidazole Pyridine Derivatives” (Hoffmann-La Roche Inc., priority 2022, published 2024)

Legend:
Assay type in all cases: biochemical
SIK1 = SIK1 (Homo sapiens, UniProt P57059); assay: Enzymatic activity assay SIK1, RapidFire mass spectrometry (phosphorylation of CHK-peptide); settings: RapidFire MS, inhibition of SIK1; read-out: SIK1 RF IC50
Protocol: (§1) Assay description SIK1-3, RapidFire:
(§2) In the presence of SIK2 (resp. SIK1 or SIK3) and ATP the CHK-peptide ([…] with C-terminal arginine amide modification) were phosphorylated at one of the four feasible serine's. Only one phosphorylation is observed under the assay conditions. 60 nl of each compound dilution series (12 point; dilution factor 3, generally 30 μM to 170 pM) in DMSO were transferred by acoustic dispensing to the assay plate and 30 min pre-incubated (ambient temperature) after the addition of 5 μl SIK1 (5 nM) resp. 5 μl SIK2 (0.5 nM) or 7 μl SIK3 (1.5 nM) in assay-buffer (12.5 mM HEPES (pH 7.0), 10 mM magnesium acetate, 0.005% BSA). 10 μM CHK-peptide solution and 5 μl 100 μM ATP for SIK1 & SIK2 resp. 3 μl for SIK3 in assay-buffer were added and incubated ambient for 45 min. 40 μl 0.125% formic acid in water were added to quench the reaction. RapidFire (RF) Mass Spectrometry was utilized for data generation as described below. The multiple charged species (3-5 charges) for the phosphorylated and non-phosphorylated form measured by MRM (Multiple Reaction Monitoring; API5000 or 6500+) or EIC (Extracted Ion Current; QToF) were summed up and the ratio calculated (sum phosphorylated species/sum all species) for data evaluation. Normalization was performed by Genedata software based on the non-inhibition control DMSO and the commercially available SIK inhibitor @ 1 μM YKL-05-099 (CAS number 1936529-65-5). The results of the assay are expressed in half-maximal inhibitory concentrations (IC50s) and are summarized below in Table 1.
(§3) Samples were aspirated by vacuum for max. 600 ms and loaded to C4-cartridge (Agilent; #G9203A) for 3000 ms@1.5 ml/min with 0.1% formic acid in water. Afterwards samples were transferred to the APT5000 (APT6500+) or QToF mass spectrometer for 4000 ms@1.25 ml/min with 90% acetonitrile; 10% water; 0.007% TFA; 0.093 formic acid. The cartridge was reconditioned for additional 500 ms with 0.1% formic acid in water
(§4) All MS analyses using the following MS-setup in MRM mode: Electrospray positive; Ion Spray Voltage: 4000V; Temperature: 550° C.; Collision Gas: 5; Curtain Gas: 15; Gas1: 40; Gas 2: 42; EP: 10
(§5) MS-Setup Agilent QToF 6545
(§6) All MS analyses using the following MS-setup in Mode MS: Dual AJS Electrospray positive; VCap: 3000V; Drying & Sheath gas: 340° C.@81/min; Nebulizer: 60 psig; Nozzle Voltage: 2000V; Fragmentor: 130V; Skimmer: 35V; Oct1 RF Vpp: 700V; Ref masses on@5spectra/s

SIK2 = SIK2 (Homo sapiens, UniProt Q9H0K1); assay: Enzymatic activity assay SIK2, RapidFire mass spectrometry (phosphorylation of CHK-peptide); settings: RapidFire MS, inhibition of SIK2; read-out: SIK2 RF IC50
Chain of SIK2 (Q9H0K1 whole entry): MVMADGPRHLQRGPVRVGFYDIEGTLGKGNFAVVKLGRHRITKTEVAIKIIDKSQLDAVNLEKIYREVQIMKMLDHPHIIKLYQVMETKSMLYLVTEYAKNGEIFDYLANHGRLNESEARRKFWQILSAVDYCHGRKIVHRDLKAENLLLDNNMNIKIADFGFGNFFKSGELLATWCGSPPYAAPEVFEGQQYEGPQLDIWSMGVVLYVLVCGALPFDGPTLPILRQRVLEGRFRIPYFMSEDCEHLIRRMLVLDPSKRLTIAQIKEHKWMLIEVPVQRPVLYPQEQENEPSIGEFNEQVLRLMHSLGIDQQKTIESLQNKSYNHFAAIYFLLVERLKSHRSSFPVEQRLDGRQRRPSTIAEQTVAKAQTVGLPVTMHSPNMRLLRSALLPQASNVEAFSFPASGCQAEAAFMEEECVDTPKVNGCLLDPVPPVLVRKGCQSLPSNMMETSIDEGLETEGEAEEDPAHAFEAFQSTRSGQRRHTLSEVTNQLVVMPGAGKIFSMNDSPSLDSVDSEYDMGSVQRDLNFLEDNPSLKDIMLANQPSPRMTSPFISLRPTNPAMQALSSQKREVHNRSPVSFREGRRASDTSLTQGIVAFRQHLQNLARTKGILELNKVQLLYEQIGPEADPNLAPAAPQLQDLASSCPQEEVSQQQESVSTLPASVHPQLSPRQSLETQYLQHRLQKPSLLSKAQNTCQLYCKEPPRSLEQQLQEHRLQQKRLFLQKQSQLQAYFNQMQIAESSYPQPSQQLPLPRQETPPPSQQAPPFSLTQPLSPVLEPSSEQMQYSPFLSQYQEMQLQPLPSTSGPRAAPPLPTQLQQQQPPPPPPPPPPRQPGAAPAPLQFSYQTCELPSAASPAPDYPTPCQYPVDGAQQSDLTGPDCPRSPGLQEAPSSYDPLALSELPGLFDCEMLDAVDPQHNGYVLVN
Protocol: as §1
as §2, with “Only one phosphorylation is observed under the assay conditions. 60 nl of each compound dilution series (12 point; dilution factor 3, generally 30 μM to 170 pM) in DMSO were transferred by acoustic dispensing to the assay plate and 30 min pre-incubated (ambient temperature) after the addition of 5 μl SIK1 (5 nM) resp.” left out, “1936529-65-5).” for “1936529-65-5). The results of the assay are expressed in half-maximal inhibitory concentrations (IC50s) and are summarized below in Table 1.”
as §3, §4, §5, §6

SIK3 = SIK3 (Homo sapiens, UniProt Q9Y2K2); assay: Enzymatic activity assay SIK3, RapidFire mass spectrometry (phosphorylation of CHK-peptide); settings: RapidFire MS, inhibition of SIK3; read-out: SIK3 RF IC50
Chain of SIK3 (Q9Y2K2 whole entry): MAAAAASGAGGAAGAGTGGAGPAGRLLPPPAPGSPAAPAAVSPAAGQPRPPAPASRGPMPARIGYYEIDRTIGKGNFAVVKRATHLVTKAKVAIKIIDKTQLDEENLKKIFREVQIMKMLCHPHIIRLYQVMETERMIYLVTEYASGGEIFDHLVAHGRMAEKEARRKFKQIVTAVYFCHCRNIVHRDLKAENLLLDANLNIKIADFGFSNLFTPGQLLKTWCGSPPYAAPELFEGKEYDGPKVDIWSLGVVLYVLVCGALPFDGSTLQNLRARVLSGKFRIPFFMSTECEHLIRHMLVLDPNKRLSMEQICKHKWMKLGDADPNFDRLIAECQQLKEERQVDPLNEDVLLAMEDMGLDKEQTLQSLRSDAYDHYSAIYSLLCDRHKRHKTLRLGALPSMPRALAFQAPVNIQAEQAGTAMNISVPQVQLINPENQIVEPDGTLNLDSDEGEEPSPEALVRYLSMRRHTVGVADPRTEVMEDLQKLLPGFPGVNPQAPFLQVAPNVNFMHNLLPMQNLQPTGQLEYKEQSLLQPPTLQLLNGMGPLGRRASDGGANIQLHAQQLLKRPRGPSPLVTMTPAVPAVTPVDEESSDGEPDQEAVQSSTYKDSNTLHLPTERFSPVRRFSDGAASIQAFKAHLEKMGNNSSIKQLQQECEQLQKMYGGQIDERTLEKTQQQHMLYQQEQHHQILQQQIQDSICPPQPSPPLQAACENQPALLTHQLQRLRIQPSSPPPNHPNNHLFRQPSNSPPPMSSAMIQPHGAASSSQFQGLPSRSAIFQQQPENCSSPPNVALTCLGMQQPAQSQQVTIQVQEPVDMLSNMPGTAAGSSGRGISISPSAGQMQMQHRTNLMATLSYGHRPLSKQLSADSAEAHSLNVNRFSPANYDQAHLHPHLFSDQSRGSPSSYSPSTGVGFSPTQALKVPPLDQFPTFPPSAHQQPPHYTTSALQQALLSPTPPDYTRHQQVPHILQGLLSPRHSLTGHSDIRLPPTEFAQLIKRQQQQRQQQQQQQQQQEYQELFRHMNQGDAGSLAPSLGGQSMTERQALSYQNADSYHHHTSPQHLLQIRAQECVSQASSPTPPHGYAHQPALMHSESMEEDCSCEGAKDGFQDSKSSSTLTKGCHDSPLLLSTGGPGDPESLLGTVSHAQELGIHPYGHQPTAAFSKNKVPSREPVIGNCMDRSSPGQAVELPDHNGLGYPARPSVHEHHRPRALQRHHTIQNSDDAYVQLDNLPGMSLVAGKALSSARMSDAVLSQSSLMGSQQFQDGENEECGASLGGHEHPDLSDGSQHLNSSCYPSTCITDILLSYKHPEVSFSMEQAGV
Protocol: as §1, §2, §3, §4, §5, §6

Chain of SIK1 (P57059 whole entry): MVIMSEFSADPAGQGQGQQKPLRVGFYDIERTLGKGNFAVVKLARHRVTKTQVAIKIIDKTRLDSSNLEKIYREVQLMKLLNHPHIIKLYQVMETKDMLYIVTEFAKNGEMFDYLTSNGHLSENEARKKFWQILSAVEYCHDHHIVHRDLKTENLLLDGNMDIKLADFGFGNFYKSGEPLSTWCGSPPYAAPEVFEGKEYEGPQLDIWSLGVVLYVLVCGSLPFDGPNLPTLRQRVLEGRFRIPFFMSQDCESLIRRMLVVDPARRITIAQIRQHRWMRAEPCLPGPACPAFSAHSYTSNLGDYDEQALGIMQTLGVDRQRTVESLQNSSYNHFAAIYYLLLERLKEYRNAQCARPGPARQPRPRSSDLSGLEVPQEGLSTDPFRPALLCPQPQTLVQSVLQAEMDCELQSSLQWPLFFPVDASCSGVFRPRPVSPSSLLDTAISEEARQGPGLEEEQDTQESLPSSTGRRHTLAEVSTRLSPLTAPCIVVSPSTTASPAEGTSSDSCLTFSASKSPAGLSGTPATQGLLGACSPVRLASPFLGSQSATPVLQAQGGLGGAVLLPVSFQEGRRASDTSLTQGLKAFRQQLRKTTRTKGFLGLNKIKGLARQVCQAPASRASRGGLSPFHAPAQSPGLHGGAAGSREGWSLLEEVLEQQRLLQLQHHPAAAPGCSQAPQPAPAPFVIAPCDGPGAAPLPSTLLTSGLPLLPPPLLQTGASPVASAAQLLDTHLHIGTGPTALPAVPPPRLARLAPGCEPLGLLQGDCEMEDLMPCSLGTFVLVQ

Cc1ccc(Nc2ccc3c(c2)ncn3-c2ccc(C(C)O)c(-n3nc(C)cc3C#N)n2)nn1 (stereo not drawn) [Example 104, 2-[3-(1-Hydroxyethyl)-6-[5-[(6-methylpyridazin-3-yl)amino]benzimidazol-1-yl]-2-pyridyl]-5-methyl-pyrazole-3-carbonitrile]
IC50 (SIK1): 616 nM
IC50 (SIK2): 10.4 nM
IC50 (SIK3): 2.6 nM

Cc1cc(C#N)nn1-c1nc(-n2cnc3cc(N[C@H]4CNC[C@H]4F)c(F)cc32)ccc1C(C)O (stereo partly drawn) [Example 166, 1-[6-[6-Fluoro-5-[[(3S,4R)-4-fluoropyrrolidin-3-yl]amino]benzimidazol-1-yl]-3-(1-hydroxyethyl)-2-pyridyl]-5-methyl-pyrazole-3-carbonitrile; formic acid]
IC50 (SIK1): 681 nM
IC50 (SIK2): 83.2 nM
IC50 (SIK3): 40.8 nM

Cc1ccc(Nc2ccc3ncn(-c4ccc(C(C)O)c(N5CCC(C)(C#N)C5)n4)c3c2)nn1 (stereo not drawn) [Example 120, 1-[3-(1-Hydroxyethyl)-6-[6-[(6-methylpyridazin-3-yl)amino]benzimidazol-1-yl]-2-pyridyl]-3-methyl-pyrrolidine-3-carbonitrile]
IC50 (SIK1): 2210 nM
IC50 (SIK2): 1310 nM
IC50 (SIK3): 307 nM

COc1nn(C)cc1-c1ccc2c(c1)ncn2-c1ccc(C(C)O)c(-n2nc(C#N)cc2C)n1 (stereo not drawn) [Example 334, 1-[3-(1-hydroxyethyl)-6-[5-(3-methoxy-1-methyl-pyrazol-4-yl)benzimidazol-1-yl]-2-pyridyl]-5-methyl-pyrazole-3-carbonitrile]
IC50 (SIK1): 3 nM
IC50 (SIK2): 1.6 nM
IC50 (SIK3): 3.4 nM

Cc1ccc(Nc2ccc3c(c2)ncn3-c2ccc(C(C)O)c(-c3ccn(CC(F)(F)F)c(=O)c3F)n2)nn1 (stereo not drawn) [Example 386, 3-fluoro-4-[3-(1-hydroxyethyl)-6-[5-[(6-methylpyridazin-3-yl)amino]benzimidazol-1-yl]-2-pyridyl]-1-(2,2,2-trifluoroethyl)pyridin-2-one]
IC50 (SIK1): 69 nM
IC50 (SIK2): 1.2 nM
IC50 (SIK3): 1.2 nM

Cc1cc(OC(F)F)nn1-c1nc(-n2cnc3cc(Nc4cccnn4)c(F)cc32)ccc1[C@H](C)O [Example 373, (1S)-1-[2-[3-(difluoromethoxy)-5-methyl-pyrazol-1-yl]-6-[6-fluoro-5-(pyridazin-3-ylamino)benzimidazol-1-yl]-3-pyridyl]ethanol]
IC50 (SIK1): 184 nM
IC50 (SIK2): 0.8 nM
IC50 (SIK3): 0.7 nM

COCCn1cc(-c2nc(-n3cnc4cc(Nc5ccc(C)nn5)ccc43)ccc2C(C)O)c(C)n1 (stereo not drawn) [Example 265, 1-[2-[1-(2-Methoxyethyl)-3-methyl-pyrazol-4-yl]-6-[5-[(6-methylpyridazin-3-yl)amino]benzimidazol-1-yl]-3-pyridyl]ethanol; formic acid]
IC50 (SIK1): 270 nM
IC50 (SIK2): 1.6 nM
IC50 (SIK3): 1.7 nM

Cc1ccc(Nc2ccc3c(c2)ncn3-c2ccc(C(C)O)c(N3CCNC4(CC4)C3)n2)nn1 (stereo not drawn) [Example 329, 1-[2-(4,7-diazaspiro[2.5]octan-7-yl)-6-[5-[(6-methylpyridazin-3-yl)amino]benzimidazol-1-yl]-3-pyridyl]ethanol]
IC50 (SIK1): 1740 nM
IC50 (SIK2): 59 nM
IC50 (SIK3): 10 nM

Cc1ccc(Nc2ccc3c(c2)ncn3-c2ccc(C(C)O)c(-c3cc(OC(F)F)nnc3C)n2)nn1 (stereo not drawn) [Example 396, 1-[2-[6-(difluoromethoxy)-3-methyl-pyridazin-4-yl]-6-[5-[(6-methylpyridazin-3-yl)amino]benzimidazol-1-yl]-3-pyridyl]ethanol]
IC50 (SIK1): 1120 nM
IC50 (SIK2): 13.5 nM
IC50 (SIK3): 5.6 nM

Cc1ccc(Nc2ccc3c(c2)ncn3-c2ccc(C(C)O)c(-c3nn(C(F)F)cc3C)n2)nn1 (stereo not drawn) [Example 363, 1-[2-[1-(difluoromethyl)-4-methyl-pyrazol-3-yl]-6-[5-[(6-methylpyridazin-3-yl)amino]benzimidazol-1-yl]-3-pyridyl]ethanol]
IC50 (SIK1): 152 nM
IC50 (SIK2): 1.2 nM
IC50 (SIK3): 1 nM

Cc1cc(C#N)nn1-c1nc(-n2cnc3cc(Nc4cc5c(nn4)CCC5)c(F)cc32)ccc1C(C)O (stereo not drawn) [Example 382, 1-[6-[5-(6,7-dihydro-5~{H}-cyclopenta[c]pyridazin-3-ylamino)-6-fluoro-benzimidazol-1-yl]-3-(1-hydroxyethyl)-2-pyridyl]-5-methyl-pyrazole-3-carbonitrile]
IC50 (SIK1): 207 nM
IC50 (SIK2): 0.5 nM
IC50 (SIK3): 0.6 nM

Cc1cc(C#N)nn1-c1nc(-n2cnc3ccc(N4CCCC45COC5)cc32)ccc1C(C)O (stereo not drawn) [Example 295, 1-[3-(1-hydroxyethyl)-6-[6-(2-oxa-5-azaspiro[3.4]octan-5-yl)benzimidazol-1-yl]-2-pyridyl]-5-methyl-pyrazole-3-carbonitrile]
IC50 (SIK1): 10 nM
IC50 (SIK2): 19.6 nM
IC50 (SIK3): 235 nM

Cc1ccc(Nc2ccc3c(c2)ncn3-c2ccc(C(C)O)c(-c3nc(CC(F)(F)F)nn3C)n2)nn1 (stereo not drawn) [Example 401, 1-[6-[5-[(6-methylpyridazin-3-yl)amino]benzimidazol-1-yl]-2-[2-methyl-5-(2,2,2-trifluoroethyl)-1,2,4-triazol-3-yl]-3-pyridyl]ethanol]
IC50 (SIK1): 1360 nM
IC50 (SIK2): 10.4 nM
IC50 (SIK3): 4.2 nM

Cc1ccc(Nc2ccc3c(c2)ncn3-c2ccc(C(C)O)c(-c3occc3C#N)n2)nn1 (stereo not drawn) [Example 226, 2-[3-(1-Hydroxyethyl)-6-[5-[(6-methylpyridazin-3-yl)amino]benzimidazol-1-yl]-2-pyridyl]furan-3-carbonitrile]
IC50 (SIK1): > 30000 nM
IC50 (SIK2): 62.1 nM
IC50 (SIK3): 21.7 nM

Cc1cnc(Nc2ccc3c(c2)ncn3-c2ccc(C(C)O)c(-n3nc(C#N)cc3C)n2)nc1 (stereo not drawn) [Example 83, 1-[3-(1-Hydroxyethyl)-6-[5-[(5-methylpyrimidin-2-yl)amino]benzimidazol-1-yl]-2-pyridyl]-5-methyl-pyrazole-3-carbonitrile]
IC50 (SIK1): 2 nM
IC50 (SIK2): 1.5 nM
IC50 (SIK3): 1.8 nM

COc1cc2ncn(-c3ccc([C@H](C)O)c(-c4ccccc4C(N)=O)n3)c2cc1OC [Example 35, (S)-2-(6-(5,6-Dimethoxy-1H-benzo[d]imidazol-1-yl)-3-(l-hydroxyethyl)pyridin-2-yl)benzamide]
IC50 (SIK1): 13400 nM
IC50 (SIK2): 6080 nM
IC50 (SIK3): 7470 nM

N-[1-[6-[3-(difluoromethyl)-5-methyl-pyrazol-1-yl]-5-(1-hydroxyethyl)-2-pyridyl]-6-fluoro-benzimidazol-5-yl] cyclopropanecarboxamide [Example 361]
IC50 (SIK1): 321 nM
IC50 (SIK2): 63.9 nM
IC50 (SIK3): 51.1 nM

Cc1cc(C#N)nn1-c1nc(-n2cnc3cc(-c4cnc(N5CCCC5=O)o4)ccc32)ccc1C(C)O (stereo not drawn) [Example 392, 1-[3-(1-hydroxyethyl)-6-[5-[2-(2-oxopyrrolidin-1-yl)oxazol-5-yl]benzimidazol-1-yl]-2-pyridyl]-5-methyl-pyrazole-3-carbonitrile]
IC50 (SIK1): 10 nM
IC50 (SIK2): 2 nM
IC50 (SIK3): 4.5 nM

Cc1ccc(Nc2cc3ncn(-c4ccc([C@H](C)O)c(-n5nc(OC(F)F)cc5C)n4)c3cc2OC2COC2)nn1 [Example 383, (1S)-1-[2-[3-(difluoromethoxy)-5-methyl-pyrazol-1-yl]-6-[5-[(6-methylpyridazin-3-yl)amino]-6-(oxetan-3-yloxy)benzimidazol-1-yl]-3-pyridyl]ethanol]
IC50 (SIK1): 5 nM
IC50 (SIK2): 0.2 nM
IC50 (SIK3): 0.5 nM
